According to patent publication US8410137B2, “Thiophene-2-carboxamide derivatives, preparation thereof and therapeutic use thereof” (Sanofi, priority 2008, dated 2013):

What was measured:
[1] = target: T1, CB1 receptors present in the brain (Mus musculus, UniProt P47746); test: Measurement (3): blocking of the hypothermic effect induced by CP55940; assay type: in vivo; details: iv at 10 mg/kg
T1 construct: from tissue; host or cells: whole animal (brain CB1 receptors, in vivo)

[2] = target: T1, CB1 receptors present in the brain; test: Measurement (2): ex vivo [3H]-CP55940 binding assay in mouse brain after intravenous administration; details: iv at 10 mg/kg, read-out: % of inhibition of the binding of [3H]-CP55940 with regard to the CB1 receptors present in the brain
[3] = Measurement (1): quantification of unchanged compound in mouse brain samples by LC-MS/MS, brain/plasma ratio; assay type: in vivo; details: iv at 3 mg/kg, read-out: Ratio: amount present in the brain/amount present in the plasma
Description: The low penetration of the compounds of formula (I) at the haematoencephalic barrier (HEB) was evaluated in vivo by: • Measurement (1): the quantification of the compounds of formula (I) (unchanged) in mouse brain samples after intravenous (iv, 3 mg/kg) or oral administration, using the LC-MS/MS analytical technique. • The

T1 sequence (P47746 whole entry): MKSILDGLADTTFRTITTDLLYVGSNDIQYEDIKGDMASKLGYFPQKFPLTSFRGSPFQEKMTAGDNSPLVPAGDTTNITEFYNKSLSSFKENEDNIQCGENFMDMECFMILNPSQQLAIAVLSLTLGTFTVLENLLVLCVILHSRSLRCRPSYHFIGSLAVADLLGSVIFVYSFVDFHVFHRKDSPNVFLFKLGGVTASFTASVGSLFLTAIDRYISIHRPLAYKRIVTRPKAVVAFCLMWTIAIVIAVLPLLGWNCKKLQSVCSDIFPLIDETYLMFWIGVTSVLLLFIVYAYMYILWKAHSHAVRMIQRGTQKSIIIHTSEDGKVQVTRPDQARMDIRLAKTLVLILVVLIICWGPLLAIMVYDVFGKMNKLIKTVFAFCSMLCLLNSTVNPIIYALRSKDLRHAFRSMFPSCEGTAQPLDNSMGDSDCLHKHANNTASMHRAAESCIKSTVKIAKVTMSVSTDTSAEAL

% of reversion of the hypothermic effect of CP55940 with regard to the CB1 receptors present in the brain [1] [%]	inhibition at 10 mg/kg [2] [%]	Kp [3]	Structure (SMILES)
35.5	32		NC(=O)C1(c2ccccc2)CCN(C(=O)c2cc(-c3ccc(OCCCO)cc3)c(-c3ccccc3Cl)s2)CC1 [compound 45, 1-({5-(2-chlorophenyl)-4-[4-(3-hydroxypropoxy)phenyl]thien-2-yl}carbonyl)-4-phenylpiperidine-4-carboxamide]
17.5	13	0.04	NC(=O)C1(c2ccccc2)CCN(C(=O)c2cc(-c3ccc(OCCCO)cc3)c(-c3ccc(Cl)cc3Cl)s2)CC1 [compound 8, 1-({5-(2,4-dichlorophenyl)-4-[4-(3-hydroxypropoxy)phenyl]-2-thienyl}carbonyl)-4-phenylpiperidine-4-carboxamide]
